Here are results for 17 molecules from patent US7674789B2, “Compounds” (Glaxo Group Limited, priority 2005, dated 2010).

The first assay relates to IL-6, IL-8, GM-CSF, RANTES and COX-2.
Assay: not given
The settings on record: a number of different cell types; cited from earlier work.
With `Fc1ccc(-c2nc3n(c2-c2ccncc2)CCS3)cc1` [SK&F 86002], the “decreasing the synthesis of pro-inflammatory proteins including IL-6, IL-8, GM-CSF, RANTES and COX-2” value was “effective”.
Consider `C[S+]([O-])c1ccc(-c2nc(-c3ccncc3)c(-c3ccc(F)cc3)[nH]2)cc1` (centres unmarked) [SB-203580], for which the “decreasing the synthesis of pro-inflammatory proteins including IL-6, IL-8, GM-CSF, RANTES and COX-2” value was “effective”.

Another assay relates to TGF-β-induced fibronectin and thrombospondin.
Assay: not given
The settings on record: Laping et al., 2002, Molec. Pharmacol. 62:58-64; cited from earlier work.
`COc1nccc(-c2c(-c3ccc(F)cc3)ncn2C2CCNCC2)n1` [SB-242235]: the “effect on TGF-β-induced increases in fibronectin and thrombospondin” value is given as “inhibited”.

For the next assay, the system named is influx of neutrophils to the lung in LPS-challenged rats. Put plainly: Rat LPS neutrophilia model. It counts as in vivo. The settings on record: intratracheal compound 15 min-24 hours before LPS aerosol (100 ug/ml, 15 min), lavage 4 hours later, in at least one of the range of conditions tested. Here is the method: Rat LPS Neutrophilia Model
The effect of compounds on the influx of neutrophils to the lung in LPS-challenged rats is evaluated as follows. The test compound is suspended in one of the following solutions: 0.5% tween 80/PBS, 0.5% tween 80/saline, 10% EtOH/saline (with pH adjusted to 2.0, or 8.0 with HCl, or unadjusted), Saline @ pH 2.0, 6.5 or 8.0, 0.5% Tragacanth, 1% DMSO/20% Encapsin/Saline, or acidified 5% Tragacanth. The suspension process may be aided by the use of a glass homogenizer. For intratracheal administration, the animals are anesthetized with inhaled isoflurane and placed in a supine position, the trachea is intubated with a steel gavage needle (1.5 inch, 22 gauge, small ball) or a Penn-Century Microsprayer Aerosolizer (model IA-1B) and 200 ul of dosing solution is delivered. The animals are visually monitored during the recovery process, which typically occurs within two minutes.
Rats treated with compound or vehicle (15 min-24 hours pretreatment) are exposed to an LPS aerosol (100 ug/ml) for 15 min. Four hours later the rats are euthanized with pentobarbital (100 mg/kg, i.p.) and the airways are lavaged with 5 washes of 5 ml of phosphate buffered saline. The harvested cells are stained (Diffquick) and counted to determine total and differential cell data. In a typical study, macrophages represent 40-70% of the total cells, and polymorphonuclear cells 30-60% of the total cells. Inhibition of neutrophil levels relative to no compound controls is calculated based on the differential counts.
The assay has varying conditions, such as concentration, pretreat time, form of the compound (crystalline, amorphous, salts, micronised), and a wet or dry application of the compound. The data is obtained as % inhibition using a particular concentration and pretreat time.
For `CCCNC(=O)c1ccc(C)c(-c2nc(N(C)CCCN(C)C)nc3c2CNC(=O)N3c2c(F)cccc2F)c1` [Example 53, 3-{8-(2,6-difluorophenyl)-2-[[3-(dimethylamino)propyl](methyl)amino]-7-oxo-5,6,7,8-tetrahydropyrimido[4,5-d]pyrimidin-4-yl}-4-methyl-N-propylbenzamide], the “inhibition of neutrophilia (neutrophil influx to the lung)” value (from here on “inhibition of neutrophilia”) is listed as “statistically nonsignificant inhibition of neutrophilia”.
Same read-out and setting: in the case of `Cc1ccc(C(=O)Nc2nccs2)cc1-c1nc(NC[C@H](C)O)nc2c1CNC(=O)N2c1c(F)cccc1F` [Example 134, 3-(8-(2,6-difluorophenyl)-2-{[(2S)-2-hydroxypropyl]amino}-7-oxo-5,6,7,8-tetrahydropyrimido[4,5-d]pyrimidin-4-yl)-4-methyl-N-1,3-thiazol-2-ylbenzamide] it was “statistically nonsignificant inhibition of neutrophilia”; in that of `Cc1ccc(C(=O)Nc2ccc(F)cc2)cc1-c1nc(N(C)CCN(C)C)nc2c1CNC(=O)N2c1c(F)cccc1F` [Example 32, 3-{8-(2,6-difluorophenyl)-2-[[2-(dimethylamino)ethyl](methyl)amino]-7-oxo-5,6,7,8-tetrahydropyrimido[4,5-d]pyrimidin-4-yl}-N-(4-fluorophenyl)-4-methylbenzamide], “statistically nonsignificant inhibition of neutrophilia”.
Still for that read-out and setting: in the case of `Cc1ccc(C(=O)Nc2ccc(F)cc2)cc1-c1nc(N2CCC(N3CCCCC3)CC2)nc2c1CNC(=O)N2c1c(F)cccc1F` [87(b), 3-[2-(1,4′-bipiperidin-1′-yl)-8-(2,6-difluorophenyl)-7-oxo-5,6,7,8-tetrahydropyrimido[4,5-d]pyrimidin-4-yl]-N-(4-fluorophenyl)-4-methylbenzamide] it was “statistically nonsignificant inhibition of neutrophilia”.
The same measure, in the same setting: in the case of `Cc1ccc(C(=O)NCc2ccccc2)cc1-c1nc(NCCCN(C)C)nc2c1CNC(=O)N2c1c(F)cccc1F` [Example 151, 3-(8-(2,6-difluorophenyl)-2-{[3-(dimethylamino)propyl]amino}-7-oxo-5,6,7,8-tetrahydropyrimido[4,5-d]pyrimidin-4-yl)-4-methyl-N-(phenylmethyl)benzamide] it was “statistically nonsignificant inhibition of neutrophilia”; in that of `CCN(CC)CCCNc1nc(-c2cc(C(=O)NC)ccc2C)c2c(n1)N(c1c(F)cccc1F)C(=O)NC2` [Example 172, 3-[2-{[3-(diethylamino)propyl]amino}-8-(2,6-difluorophenyl)-7-oxo-5,6,7,8-tetrahydropyrimido[4,5-d]pyrimidin-4-yl]-N,4-dimethylbenzamide], “statistically nonsignificant inhibition of neutrophilia”.
For `Cc1ccc(C(=O)Nc2nccs2)cc1-c1nc(NCCN(C)C)nc2c1CNC(=O)N2c1c(F)cccc1F` [118(c), 3-(8-(2,6-difluorophenyl)-2-{[2-(dimethylamino)ethyl]amino}-7-oxo-5,6,7,8-tetrahydropyrimido[4,5-d]pyrimidin-4-yl)-4-methyl-N-1,3-thiazol-2-ylbenzamide], the “inhibition of neutrophilia” value was “statistically significant inhibition of neutrophilia”.
Same read-out and setting: in the case of `Cc1ccc(C(=O)NC(C)C)cc1-c1nc(N(C)CCCN(C)C)nc2c1CNC(=O)N2c1c(F)cccc1F` [34(d), 3-{8-(2,6-difluorophenyl)-2-[[3-(dimethylamino)propyl](methyl)amino]-7-oxo-5,6,7,8-tetrahydropyrimido[4,5-d]pyrimidin-4-yl}-4-methyl-N-(1-methylethyl)benzamide] it was “statistically nonsignificant inhibition of neutrophilia”; in that of `Cc1ccc(C(=O)NC(C)C)cc1-c1nc(NCCN(C)C)nc2c1CNC(=O)N2c1c(F)cccc1F` [Example 37, 3-(8-(2,6-difluorophenyl)-2-{[2-(dimethylamino)ethyl]amino}-7-oxo-5,6,7,8-tetrahydropyrimido[4,5-d]pyrimidin-4-yl)-4-methyl-N-(1-methylethyl)benzamide], “statistically nonsignificant inhibition of neutrophilia”.
In the case of `CNC(=O)c1ccc(C)c(-c2nc(N(C)CCCN(C)C)nc3c2CNC(=O)N3c2c(F)cccc2F)c1` [Example 174, 3-{8-(2,6-difluorophenyl)-2-[[3-(dimethylamino)propyl](methyl)amino]-7-oxo-5,6,7,8-tetrahydropyrimido[4,5-d]pyrimidin-4-yl}-N,4-dimethylbenzamide], the “inhibition of neutrophilia” value was “inactive”.
In the case of `CSc1nc(-c2cc(NC(=O)c3ccc(C)c(F)c3)ccc2C)c2c(n1)N(c1c(F)cccc1F)C(=O)NC2` [23(c), N-{3-[8-(2,6-difluorophenyl)-2-(methylthio)-7-oxo-5,6,7,8-tetrahydropyrimido[4,5-d]pyrimidin-4-yl]-4-methylphenyl}-3-fluoro-4-methylbenzamide], the “inhibition of neutrophilia” value is “inactive”.
As to `Cc1ccc(C(=O)Nc2ccc(C)c(-c3nc(OC(C)C)nc4c3CNC(=O)N4c3c(F)cccc3F)c2)cc1F` [Example 26, N-(3-{8-(2,6-difluorophenyl)-2-[(1-methylethyl)oxy]-7-oxo-5,6,7,8-tetrahydropyrimido[4,5-d]pyrimidin-4-yl}-4-methylphenyl)-3-fluoro-4-methylbenzamide], the “inhibition of neutrophilia” value was “inactive”.
On the same count and under the same terms, in the case of `Cc1ccc(NC(=O)c2ccsc2)cc1-c1nc(N2CCC(N)CC2)nc2c1CNC(=O)N2c1c(F)cccc1F` [Example 11, N-{3-[2-(4-amino-1-piperidinyl)-8-(2,6-difluorophenyl)-7-oxo-5,6,7,8-tetrahydropyrimido[4,5-d]pyrimidin-4-yl]-4-methylphenyl}-3-thiophenecarboxamide] it was “statistically significant inhibition of neutrophilia”; in that of `CCCNC(=O)c1ccc(C)c(-c2nc(NCCCN(CC)CC)nc3c2CNC(=O)N3c2c(F)cccc2F)c1` [29(c), 3-[2-{[3-(diethylamino)propyl]amino}-8-(2,6-difluorophenyl)-7-oxo-5,6,7,8-tetrahydropyrimido[4,5-d]pyrimidin-4-yl]-4-methyl-N-propylbenzamide], “statistically significant inhibition of neutrophilia”.
